# Source: publication PMC12087874, “Biaryl Phosphates and Phosphonates as Selective Inhibitors of the Transcription Factor STAT4” (Angewandte Chemie (International Ed. in English), 2025)
# “Also recorded” adds a separate entry of the source. Where two headings read alike, the source gives them in different places.
# Columns and labels:
# [1] = biological target: STAT3 (Homo sapiens, UniProt P40763); test: STAT3 Tyr705 phosphorylation in HCC-827 cells (Western blot); format: cell-based; design: endogenous in cells; details: serum-free conditions, read-out: IC 50, phosphorylation of STAT3 (Tyr705)
# Experimental: HCC-827 cells (DSMZ) and K562 cells
# (DSMZ) were cultured in RPMI 1640 medium containing 10% FBS, 2 mM L -glutamine and penicillin/streptomycin. HCC -827 cells were subcultured by briefly rinsing with sterile PBS followed by incubation with 0.25% Trypsin-EDTA solution before inactivation by addition of cell culture medium (all reagents apart from cell lines were from Gibco at Thermo Fisher Scientific). […]
# (§1) Cells were […]
# harvested by washing twice with ice -cold TBS, followed by resuspension in TBS supplemented with protease/phosphatase inhibitors (100 ng/ml aprotinin, 1 mM Na3VO4, 10 mM NaF, 1 mM PMSF). The adherent HCC-827 cells were mechanically separated from the culture surface using plastic cell scrapers (A. Hartenstein). […]
# (§2) The components of cell lysates from treated cells, or heat-treated lysates from CETSA, were separated by SDS-PAGE (10%), transferred to nitrocellulose membrane (Bio-Rad) and detected using monoclonal rabbit primary antibodies (Cell Signaling), α-rabbit-HRP secondary antibody (Dako) and Western Lightning Plus chemiluminescence reagent (Perkin Elmer).
# (§3) Bands were visualized using an ImageQuant system (GE Healthcare) and quantitated using ImageJ software (NIH). […]
# (§4) The sitting drop was composed of 0.1 µl protein solution and 0.1 µl reservoir solution. Plates were stored at 19°C in a protein […]
# [2] = biological target: T1, STAT4 (Homo sapiens, UniProt Q14765); test: IL-12-induced STAT4 Tyr693 phosphorylation in NK-92 cells (Western blot); format: cell-based; design: utilizing cellular lysates from the STAT4‐expressing natural killer cell line NK‐92; endogenous in cells; host or cells: NK-92 (DSMZ)
# T1 sequence (Q14765 1-748): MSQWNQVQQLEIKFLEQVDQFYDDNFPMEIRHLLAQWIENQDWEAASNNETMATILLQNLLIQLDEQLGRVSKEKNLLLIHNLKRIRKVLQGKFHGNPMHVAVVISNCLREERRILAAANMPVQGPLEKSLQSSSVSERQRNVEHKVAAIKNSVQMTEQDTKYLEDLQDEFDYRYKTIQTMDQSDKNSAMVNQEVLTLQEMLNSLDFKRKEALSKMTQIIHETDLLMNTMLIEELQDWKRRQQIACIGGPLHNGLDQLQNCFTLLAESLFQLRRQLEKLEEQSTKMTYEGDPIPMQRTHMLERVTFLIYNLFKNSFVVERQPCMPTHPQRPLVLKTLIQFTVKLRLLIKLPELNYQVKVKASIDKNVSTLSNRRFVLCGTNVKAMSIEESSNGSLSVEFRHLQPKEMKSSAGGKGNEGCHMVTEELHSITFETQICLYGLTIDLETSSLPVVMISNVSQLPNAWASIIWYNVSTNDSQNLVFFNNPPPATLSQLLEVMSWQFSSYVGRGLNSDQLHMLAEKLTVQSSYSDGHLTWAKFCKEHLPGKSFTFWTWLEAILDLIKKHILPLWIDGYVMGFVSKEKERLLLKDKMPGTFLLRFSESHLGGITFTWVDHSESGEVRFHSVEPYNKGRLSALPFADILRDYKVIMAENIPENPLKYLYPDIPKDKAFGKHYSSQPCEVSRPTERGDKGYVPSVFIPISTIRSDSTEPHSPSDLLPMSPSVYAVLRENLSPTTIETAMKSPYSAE
# Experimental: (§5) NK-92 cells (DSMZ) were cultured in α-MEM containing 12.5% fetal bovine serum (FBS), 12.5% horse serum, 2 mM L-glutamine, penicillin/streptomycin and 50 U/ml IL -2. […]
# as §2, §3, §4
# (§6) In the first set of experiments, w e tried to crystallize STAT4 as a SUMO -STAT4 fusion protein […]
# (§7) was cleaved off as described above.
# Screening for crystallization conditions for tag-free STAT4 was performed both in the absence or presence of 1 equivalent of 6m or 6h. Since the chosen protein concentration of 3.6 mg/ml appeared to be too low, screening was repeated with a higher concentration of 6.4 mg/ml STAT4 for all conditions (corresponding to 100 µM 6m). Both the SUMO-STAT4 and the tag-free STAT4 preferentially precipitated under conditions containing polyethylene glycol. In one set of experiments, we also screened for conditions in the presence of the high-affinity peptide GY(PO3H2)LPQNID adapted from the IL-12 receptor. However, none of the conditions resulted in the growth of STAT4 crystals (Table S4).
# [3] = tested on: IFN‐γ induction; test: IL-12/IL-18-mediated IFN-γ induction in NK-92 cells; format: cell-based, human; details: 4 h, 50 ng/ml IL-12 and 10 ng/ml IL-18
# Experimental: as §5
# (§8) NK-92 cells were treated with test compound or DMSO in 1.5 ml medium in 12 -well plates (Corning) for 2 h (final DMSO concentration 0.2%), in the presence of 50 ng/ml IL -12 (PeproTech). For IFN-γ experiments (Figure 6 and S6), NK -92 cells or TALL-104 cells were treated for 4 h in the presence of 50 ng/ml IL-12 and 10 ng/ml IL-18 (Bio-Techne). […]
# as §2, §3, §4, §6, §7
# Screening for crystallization conditions for tag-free STAT4 was performed both in the absence or presence of 1 equivalent of 6m or 6h. […]
# [4] = tested on: IFN‐γ induction; test: IFN-γ induction in TALL-104 cells; format: cell-based, human; details: 4 h, IL-12 or IL-12 and IL-18
# Experimental: (§9) NK-92 cells (DSMZ) were cultured in α-MEM containing 12.5% fetal bovine serum (FBS), 12.5% horse serum, 2 mM L-glutamine, penicillin/streptomycin and 50 U/ml IL -2. TALL-104 cells (ATCC, LGC Standards) were cultured in RPMI 1640 medium containing 20% FBS, 2 mM L - glutamine, penicillin/streptomy cin and 100 U/ml IL-2. […]
# as §8, §2, §3, §4, §6
# (§10) was cleaved off as described above. […]
# [5] = biological target: T1, STAT4; test: STAT4 phosphorylation in TALL-104 cells stimulated by IL-12 or IL-12 and IL-18; format: cell-based; design: utilizing cellular lysates from the STAT4‐expressing natural killer cell line NK‐92; endogenous in cells; host or cells: NK-92 (DSMZ); details: 4 h
# Experimental: as §9, §8, §2, §3, §4, §6, §10
# [6] = tested on: STAT5a/5b; test: STAT5a/5b phosphorylation in K562 cells (Western blot); format: cell-based, human; details: Tyr694 (STAT5a)/Tyr699 (STAT5b), read-out: IC 50, STAT5a/5b‐phosphorylation
# Experimental: as §1
# harvested by washing twice with ice -cold TBS, followed by resuspension in TBS supplemented with protease/phosphatase inhibitors (100 ng/ml aprotinin, 1 mM Na3VO4, 10 mM NaF, 1 mM […]
# as §2, §3, §4, §6, §7
# Screening for crystallization conditions for tag-free STAT4 was performed both in the absence or presence of 1 equivalent of 6m or 6h. Since the chosen protein concentration of 3.6 mg/ml appeared to be too low, screening was repeated with a higher concentration of 6.4 mg/ml STAT4 for all conditions (corresponding to 100 µM 6m). Both the SUMO-STAT4 and the tag-free STAT4 preferentially precipitated under conditions containing polyethylene glycol. […]
# Chain of STAT3 (P40763 whole entry): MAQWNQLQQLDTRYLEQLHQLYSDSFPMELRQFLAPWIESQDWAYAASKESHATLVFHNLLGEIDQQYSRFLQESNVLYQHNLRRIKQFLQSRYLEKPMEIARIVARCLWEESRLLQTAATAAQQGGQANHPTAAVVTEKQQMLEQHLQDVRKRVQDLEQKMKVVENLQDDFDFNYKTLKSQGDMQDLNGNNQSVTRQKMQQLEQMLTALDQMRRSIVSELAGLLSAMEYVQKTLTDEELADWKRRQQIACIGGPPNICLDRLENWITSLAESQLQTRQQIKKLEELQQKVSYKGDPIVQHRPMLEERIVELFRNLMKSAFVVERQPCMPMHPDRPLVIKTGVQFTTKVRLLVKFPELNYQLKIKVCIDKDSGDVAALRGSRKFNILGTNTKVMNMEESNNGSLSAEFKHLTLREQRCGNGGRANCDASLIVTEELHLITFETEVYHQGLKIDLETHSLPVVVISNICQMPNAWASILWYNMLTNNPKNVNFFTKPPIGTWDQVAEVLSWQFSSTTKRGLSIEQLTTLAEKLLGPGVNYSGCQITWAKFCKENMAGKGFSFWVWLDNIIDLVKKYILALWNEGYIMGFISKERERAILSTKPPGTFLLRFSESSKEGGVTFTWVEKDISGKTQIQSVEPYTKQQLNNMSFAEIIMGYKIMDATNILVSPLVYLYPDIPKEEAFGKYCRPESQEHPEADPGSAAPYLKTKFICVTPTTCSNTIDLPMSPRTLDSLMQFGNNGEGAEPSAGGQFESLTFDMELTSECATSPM
structure (smiles),measurement,setting,value
Cc1cc(-c2ccc(C(F)(F)P(=O)(OCOC(=O)C(C)(C)C)OCOC(=O)C(C)(C)C)c(F)c2)cs1 [Compound 9],IC50,[1],19 µM
same,inhibition of IL‐12‐induced STAT4 Tyr693 phosphorylation,"[2]; 2 h, presence of 25% serum",moderately inhibits
same,IC50,"[2]; 2 h, presence of 25% serum, read-out: IC 50, IL‐12‐induced STAT4 phosphorylation",77 µM
same,IL‐12/IL‐18‐mediated STAT4 phosphorylation,"[2]; 4 h, 50 ng/ml IL-12 and 10 ng/ml IL-18",strongly reduced; also recorded: inhibits
same,IC50,"[2]; IL-12, absence of serum, read-out: IC 50, STAT4 Tyr693 phosphorylation",3.3 µM
same,IL12/IL‐18‐mediated IFN‐γ induction,[3],strongly reduced; also recorded: inhibits
same,IFN‐γ induction,[4],inhibited
same,STAT4 phosphorylation stimulated by IL‐12 alone or co‐stimulated by IL‐12 and IL‐18,[5],inhibited
same,IC50,[6],> 25 µM
